Results as given in patent publication US9896441B2 (Lycera Corporation, priority 2014, dated 2018).

What was measured:
RORγ-LBD = target: T1, RORγ-LBD (Homo sapiens, UniProt P51449); experiment: RORγ-Ligand Binding Domain (LBD) TR-FRET Assay; format: biochemical; conditions: for TR-FRET Assay Max Response: maximum response;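 as to TR-FRET Assay Max Response: 665/615 nm signal ratio set to 100 without ursolic acid or test compound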
T1 construct: made in house; host or cells: SF9 cells (baculovirus); used as diluted lysate
T1 sequence (P51449 269-508 limits assumed): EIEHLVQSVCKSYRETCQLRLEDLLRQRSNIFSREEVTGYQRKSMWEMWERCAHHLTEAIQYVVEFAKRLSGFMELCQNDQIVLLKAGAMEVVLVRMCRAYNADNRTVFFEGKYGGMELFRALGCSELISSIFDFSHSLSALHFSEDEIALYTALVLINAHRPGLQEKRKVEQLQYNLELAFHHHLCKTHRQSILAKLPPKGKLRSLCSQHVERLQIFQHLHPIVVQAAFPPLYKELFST
In short: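 His-tagged RORγ-LBD from SF9 baculovirus lysate, ~3 nM final, in 50 mM Tris pH 7.0, 50 mM KCl, 1 mM EDTA, 0.1 mM DTT, 0.01% BSA. Biotinylated SRC1 LXXLL peptide at 200 nM final with 2 μM ursolic acid; TR-FRET read-out, 1% DMSO final.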

Gal4-RORγ-LBD = target: T2, Gal4-RORγ-LBD (Homo sapiens, UniProt P51449); experiment: Gal4-RORγ Luciferase Reporter Assay in HEK-293T Cells; format: cell-based; conditions: HEK-293 cells; for Gal4-RORγ Assay Max Response: maximum response
T2 construct: expressed in transfected cells
T2 sequence (P51449 269-508 limits assumed): T1 sequence (P51449 269-508 limits assumed)
In short: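 HEK-293 cells were co-transfected with Gal4-RORγ-LBD and a Gal4-luciferase reporter, then exposed overnight at 37 °C to compounds with […] ursolic acid present (0.2% DMSO). Luminescence was read with One-Glo after 10 min at RT, untreated signal was set as 100, and Max Response was taken as the upper plateau of a 4-parameter logistic fit.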

[1] = luciferase reporter, with ursolic acid
[2] = luciferase reporter, in presence of ursolic acid
[3] = with 2 μM ursolic acid (RORγ antagonist), highest test concentration 10 μM
[4] = ursolic acid present, luciferase readout

COC(=O)CC[C@H]1CN(S(=O)(=O)c2cc(C(F)(F)F)cnc2OCCO)c2cc(/C=C/c3c(F)cccc3Cl)ccc2O1 [Example 89EB, methyl (S,E)-3-(6-(2-chloro-6-fluorostyryl)-4-((2-(2-hydroxyethoxy)-5-(trifluoromethyl)-pyridin-3-yl)sulfonyl)-3,4-dihydro-2H-benzo[b][1,4]oxazin-2-yl)propanoate]
EC50 (RORγ-LBD; RORγ-LBD TR-FRET): < 500 nM | EC50 (Gal4-RORγ-LBD; [1]): < 500 nM

CCOC(=O)C(=O)NCC[C@H]1CN(S(=O)(=O)c2ccc(F)c(OC)c2)c2cc(/C=C(\C)c3c(F)cccc3Cl)ccc2O1 [Example 116C, ethyl (S,E)-2-((2-(6-(2-(2-chloro-6-fluorophenyl)prop-1-en-1-yl)-4-((4-fluoro-3-methoxyphenyl)sulfonyl)-3,4-dihydro-2H-benzo[b][1,4]oxazin-2-yl)ethyl)amino)-2-oxoacetate]
EC50 (RORγ-LBD; RORγ-LBD TR-FRET assay): < 500 nM | TR-FRET Assay Max Response (RORγ-LBD; RORγ-LBD TR-FRET assay): *** (a value in the range of greater than 150 to 200) | EC50 (Gal4-RORγ-LBD; [2]): 500 to 5000 nM | Gal4-RORγ Assay Max Response (Gal4-RORγ-LBD; [2]): ** (a value in the range of greater than 90 to 150)

C/C(=C\c1ccc2c(c1)N(S(=O)(=O)c1cccc(C(F)(F)F)c1)C[C@H](CCC(=O)N1CCC(C(=O)[O-])CC1)O2)c1c(F)cccc1Cl.[Na+] [Example 128, Sodium Salt of (S,E)-1-(3-(6-(2-(2-Chloro-6-fluorophenyl)prop-1-en-1-yl)-4-((3-(trifluoromethyl)phenyl)sulfonyl)-3,4-dihydro-2H-benzo[b][1,4]oxazin-2-yl)propanoyl)piperidine-4-carboxylic acid]
EC50 (RORγ-LBD; RORγ-LBD TR-FRET assay): < 500 nM | TR-FRET Assay Max Response (RORγ-LBD; RORγ-LBD TR-FRET assay): **** (a value greater than 200) | EC50 (Gal4-RORγ-LBD; [2]): < 500 nM | Gal4-RORγ Assay Max Response (Gal4-RORγ-LBD; [2]): ** (a value in the range of greater than 90 to 150)

CCOc1nn(CC)cc1S(=O)(=O)N1C[C@H](CCC(=O)OC)Oc2ccc(/C=C/c3ccccc3Cl)cc21 [Example 89BD, (S,E)-methyl 3-(6-(2-chlorostyryl)-4-((3-ethoxy-1-ethyl-1H-pyrazol-4-yl)sulfonyl)-3,4-dihydro-2H-benzo[b][1,4]-oxazin-2-yl)propanoate]
EC50 (RORγ-LBD; RORγ-LBD TR-FRET): < 500 nM | EC50 (Gal4-RORγ-LBD; [1]): > 10000 nM

C/C(=C\c1ccc2c(c1)N(S(=O)(=O)c1cccc(C(F)(F)F)c1)C[C@H](CNC(=O)N(C)CCC(=O)O)O2)c1c(F)cccc1Cl [Example 116P, (S,E)-3-(3-((6-(2-(2-chloro-6-fluorophenyl)prop-1-en-1-yl)-4-((3-(trifluoromethyl)phenyl)sulfonyl)-3,4-dihydro-2H-benzo[b][1,4]-oxazin-2-yl)methyl)-1-methylureido)propanoic acid]
EC50 (RORγ-LBD; [3]): < 500 nM | EC50 (Gal4-RORγ-LBD; [4]): < 500 nM

COc1ccccc1/C=C/c1ccc2c(c1)N(S(=O)(=O)c1cccc(OC(F)F)c1)C[C@H](CCC(=O)O)O2 [Example 89AY, (S,E)-3-(4-((3-(difluoromethoxy)phenyl)sulfonyl)-6-(2-methoxystyryl)-3,4-dihydro-2H-benzo[b][1,4]oxazin-2-yl)propanoic acid]
EC50 (RORγ-LBD; RORγ-LBD TR-FRET): < 500 nM | EC50 (Gal4-RORγ-LBD; [1]): 500 to 5000 nM

C/C(=C\c1ccc2c(c1)N(S(=O)(=O)c1cc(Cl)cnc1OCCO)C[C@H](CCC(=O)O)O2)c1c(F)cccc1Cl [Example 70, (S,E)-3-(4-((5-Chloro-2-(2-hydroxyethoxy)pyridin-3-yl)sulfonyl)-6-(2-(2-chloro-6-fluorophenyl)prop-1-en-1-yl)-3,4-dihydro-2H-benzo[b][1,4]oxazin-2-yl)propanoic acid]
EC50 (RORγ-LBD; RORγ-LBD TR-FRET): < 500 nM | EC50 (Gal4-RORγ-LBD; [1]): < 500 nM

C[C@@H]1[C@@H](O)Cc2ccc(/C=C/c3c(F)cccc3Cl)cc2N1S(=O)(=O)c1cccc(C(F)(F)F)c1 (racemic) [Example 176, rac-(2R,3S)-7-((E)-2-Chloro-6-fluorostyryl)-2-methyl-1-((3-(trifluoromethyl)phenyl)sulfonyl)-1,2,3,4-tetrahydroquinolin-3-ol]
EC50 (RORγ-LBD; RORγ-LBD TR-FRET assay): < 500 nM | TR-FRET Assay Max Response (RORγ-LBD; RORγ-LBD TR-FRET assay): *** (a value in the range of greater than 150 to 200) | EC50 (Gal4-RORγ-LBD; [2]): 500 to 5000 nM | Gal4-RORγ Assay Max Response (Gal4-RORγ-LBD; [2]): ** (a value in the range of greater than 90 to 150)

CC1(C)CCC(=Cc2ccc3c(c2)N(S(=O)(=O)c2cc(C(F)(F)F)cnc2OCCO)C[C@H](CCC(=O)O)O3)CC1 [Example 95W, (S)-3-(6-((4,4-dimethyl-cyclohexylidene)methyl)-4-((2-(2-hydroxyethoxy)-5-(trifluoromethyl)pyridin-3-yl)sulfonyl)-3,4-dihydro-2H-benzo[b][1,4]oxazin-2-yl)propanoic acid]
EC50 (RORγ-LBD; RORγ-LBD TR-FRET): < 500 nM | EC50 (Gal4-RORγ-LBD; [1]): 500 to 5000 nM

COC(=O)CC[C@H]1CN(S(=O)(=O)c2ccc(F)c(C3CC3)c2)c2cc(/C=C(\C)c3c(F)cccc3Cl)ccc2O1 [Example 86D, (S,E)-methyl 3-(6-(2-(2-chloro-6-fluorophenyl)prop-1-en-1-yl)-4-((3-cyclopropyl-4-fluorophenyl)-sulfonyl)-3,4-dihydro-2H-benzo[b][1,4]oxazin-2-yl)propanoate]
EC50 (RORγ-LBD; RORγ-LBD TR-FRET): < 500 nM | EC50 (Gal4-RORγ-LBD; [1]): < 500 nM

O=C(O)CC[C@H]1CN(S(=O)(=O)c2cc(C(F)(F)F)cnc2OCCO)c2cc(/C=C/c3c(Cl)cccc3C(F)F)ccc2O1 [Example 89EM, (S,E)-3-(6-(2-chloro-6-(difluoromethyl)styryl)-4-((2-(2-hydroxyethoxy)-5-(trifluoromethyl)pyridin-3-yl)sulfonyl)-3,4-dihydro-2H-benzo[b][1,4]oxazin-2-yl)propanoic acid]
EC50 (RORγ-LBD; RORγ-LBD TR-FRET): < 500 nM | EC50 (Gal4-RORγ-LBD; [1]): < 500 nM

CCOC(=O)C1Cc2ccc(CCc3c(F)cccc3Cl)cc2N(S(=O)(=O)c2cccc(C(F)(F)F)c2)C1 (centres unmarked)
EC50 (RORγ-LBD; [3]): < 500 nM | EC50 (Gal4-RORγ-LBD; [4]): < 500 nM

C/C(=C\c1ccc2c(c1)N(S(=O)(=O)c1cccc(C(F)(F)F)c1)C[C@H](CCC(=O)N1C[C@@H](C)O[C@@H](C)C1)O2)c1c(F)cccc1Cl [Example 127E, 3-((S)-6-((E)-2-(2-chloro-6-fluorophenyl)prop-1-en-1-yl)-4-((3-(trifluoromethyl)phenyl)sulfonyl)-3,4-dihydro-2H-benzo[b][1,4]oxazin-2-yl)-1-((2S,6R)-2,6-dimethylmorpholino)propan-1-one]
EC50 (RORγ-LBD; RORγ-LBD TR-FRET assay): < 500 nM | TR-FRET Assay Max Response (RORγ-LBD; RORγ-LBD TR-FRET assay): *** (a value in the range of greater than 150 to 200) | EC50 (Gal4-RORγ-LBD; [2]): < 500 nM | Gal4-RORγ Assay Max Response (Gal4-RORγ-LBD; [2]): * (a value in the range of 30 to 90)

C/C(=C\c1ccc2c(c1)N(S(=O)(=O)c1cccc(C(F)(F)F)c1)C[C@H](CCC(=O)N1CCC(C(N)=O)CC1)O2)c1c(F)cccc1Cl [Example 127A, (S,E)-1-(3-(6-(2-(2-chloro-6-fluoro-phenyl)-prop-1-en-1-yl)-4-((3-(trifuoromethyl)phenyl)sulfonyl)-3,4-dihydro-2H-benzo[b][1,4]oxazin-2-yl)propanoyl)piperidine-4-carboxamide]
EC50 (RORγ-LBD; RORγ-LBD TR-FRET assay): < 500 nM | TR-FRET Assay Max Response (RORγ-LBD; RORγ-LBD TR-FRET assay): **** (a value greater than 200) | EC50 (Gal4-RORγ-LBD; [2]): < 500 nM | Gal4-RORγ Assay Max Response (Gal4-RORγ-LBD; [2]): ** (a value in the range of greater than 90 to 150)

C/C(=C\c1ccc2c(c1)N(S(=O)(=O)c1cccc(C(F)(F)F)c1)C[C@H](CCCN1CCOCC1)O2)c1c(F)cccc1Cl [Example 119D, (S,E)-6-(2-(2-chloro-6-fluorophenyl)prop-1-en-1-yl)-2-(3-morpholinopropyl)-4-((3-(trifluoromethyl)-phenyl)sulfonyl)-3,4-dihydro-2H-benzo[b][1,4]oxazine]
EC50 (RORγ-LBD; RORγ-LBD TR-FRET assay): < 500 nM | TR-FRET Assay Max Response (RORγ-LBD; RORγ-LBD TR-FRET assay): *** (a value in the range of greater than 150 to 200) | EC50 (Gal4-RORγ-LBD; [2]): < 500 nM | Gal4-RORγ Assay Max Response (Gal4-RORγ-LBD; [2]): ** (a value in the range of greater than 90 to 150)

C[C@H](O)COc1ncc(C(F)(F)F)cc1S(=O)(=O)N1C[C@H](CCC(=O)O)Oc2ccc(/C=C/c3c(F)cccc3Cl)cc21 [Example 89FM, 3-((S)-6-((E)-2-chloro-6-fluorostyryl)-4-((2-((S)-2-hydroxypropoxy)-5-(trifluoromethyl)pyridin-3-yl)sulfonyl)-3,4-dihydro-2H-benzo[b][1,4]oxazin-2-yl)propanoic acid]
EC50 (RORγ-LBD; RORγ-LBD TR-FRET): < 500 nM | EC50 (Gal4-RORγ-LBD; [1]): 500 to 5000 nM

COC(=O)CC[C@H]1CN(S(=O)(=O)c2c(Cl)nc3sccn23)c2cc(/C=C(\C)c3c(F)cccc3Cl)ccc2O1 [Example 86V, (S)-methyl 3-(6-(2-(2-chloro-6-fluorophenyl)prop-1-en-1-yl)-4-((6-chloroimidazo[2,1-b]thiazol-5-yl)sulfonyl)-3,4-dihydro-2H-benzo[b][1,4]oxazin-2-yl)propanoate]
EC50 (RORγ-LBD; RORγ-LBD TR-FRET): < 500 nM | EC50 (Gal4-RORγ-LBD; [1]): 500 to 5000 nM

CC1CCCC/C1=C\c1ccc2c(c1)N(S(=O)(=O)c1cccc(C(F)(F)F)c1)C[C@H](CCC(=O)O)O2 (stereo partly drawn) [Example 95Q, 3-((2S)-6-((E)-(2-methylcyclohexylidene)methyl)-4-((3-(trifluoromethyl)phenyl)-sulfonyl)-3,4-dihydro-2H-benzo[b][1,4]oxazin-2-yl)propanoic acid]
EC50 (RORγ-LBD; RORγ-LBD TR-FRET): < 500 nM | EC50 (Gal4-RORγ-LBD; [1]): < 500 nM

CCOc1ncc(C(F)(F)F)cc1S(=O)(=O)N1C[C@H](CCC(=O)O)Oc2ccc(/C=C(\C)c3c(F)cccc3Cl)cc21 [Example 34, (S,E)-3-(6-(2-(2-Chloro-6-fluorophenyl)prop-1-en-1-yl)-4-((2-ethoxy-5-(trifluoromethyl)pyridin-3-yl)sulfonyl)-3,4-dihydro-2H-benzo[b][1,4]oxazin-2-yl)propanoic acid]
EC50 (RORγ-LBD; RORγ-LBD TR-FRET): < 500 nM | EC50 (Gal4-RORγ-LBD; [1]): 500 to 5000 nM
